Assay results: ChEMBL document CHEMBL3885881, “DrugMatrix”

Species on record: Rattus norvegicus
Assay: DrugMatrix - Regimen: Daily Repeat
Type: toxicity, organism-based, Sprague-Dawley
Parameters: regimen Daily Repeat, gender Male, age 6-8 weeks
Conditions: in vivo, po, route oral GAVAGE, vehicle .5 % CMC; for ABSOLUTE BASOPHIL / ABSOLUTE EOSINOPHIL / ABSOLUTE LYMPHOCYTE / ABSOLUTE MONOCYTE / ABSOLUTE SEGMENTED NEUTROPHIL / BASOPHIL / EOSINOPHIL / ERYTHROCYTE COUNT / HEMATOCRIT / HEMOGLOBIN / LEUKOCYTE COUNT / LYMPHOCYTE / MEAN CORPUSCULAR HEMOGLOBIN / MEAN CORPUSCULAR HEMOGLOBIN CONCENTRATION / MEAN CORPUSCULAR VOLUME / MONOCYTE / NEUTROPHIL / NUCLEATED RED BLOOD CELLS / PLATELET COUNT: tissue Blood; for ALANINE AMINOTRANSFERASE / ALBUMIN / ALKALINE PHOSPHATASE / ASPARTATE AMINOTRANSFERASE / BLOOD UREA NITROGEN / CARBON DIOXIDE / CHLORIDE / CHOLESTEROL / CREATINE PHOSPHOKINASE / CREATININE / GLUCOSE / LACTATE DEHYDROGENASE / LIPASE / PHOSPHORUS / POTASSIUM / SODIUM / TOTAL BILIRUBIN / TOTAL PROTEIN / URIC ACID: tissue Plasma
[1] = 30 mg/kg, 72 h, dose level Low, time 3 day
[2] = 30 mg/kg, 120 h, dose level Low, time 5 day
[3] = 1200 mg/kg, 72 h, dose level High, time 3 day
[4] = 1200 mg/kg, 120 h, dose level High, time 5 day

CN(Cc1cc(Br)cc(Br)c1N)C1CCCCC1 [BROMHEXINE]
ABSOLUTE BASOPHIL [1]: 0 CELLS/uL | ABSOLUTE EOSINOPHIL [1]: 52.67 CELLS/uL | ABSOLUTE LYMPHOCYTE [1]: 13749.67 CELLS/uL | ABSOLUTE MONOCYTE [1]: 46.33 CELLS/uL | ABSOLUTE SEGMENTED NEUTROPHIL [1]: 484.67 CELLS/uL | BASOPHIL [1]: 0% | EOSINOPHIL [1]: 0.33% | ERYTHROCYTE COUNT [1]: 5.57 x10E6/uL | HEMATOCRIT [1]: 34.67% | HEMOGLOBIN [1]: 13.63 G/DL | LEUKOCYTE COUNT [1]: 14.33 x10E3/uL | LYMPHOCYTE [1]: 96% | MEAN CORPUSCULAR HEMOGLOBIN [1]: 24.5 pg | MEAN CORPUSCULAR HEMOGLOBIN CONCENTRATION [1]: 39.37 G/DL | MEAN CORPUSCULAR VOLUME [1]: 62.23 fL | MONOCYTE [1]: 0.33% | NEUTROPHIL [1]: 3.33% | NUCLEATED RED BLOOD CELLS [1]: 0.33 /100WBC | PLATELET COUNT [1]: 1277.67 x10E3/uL | ALANINE AMINOTRANSFERASE [1]: 49 u/L | ALBUMIN [1]: 4.13 G/DL | ALKALINE PHOSPHATASE [1]: 406.33 u/L | ASPARTATE AMINOTRANSFERASE [1]: 85 u/L | BLOOD UREA NITROGEN [1]: 15 mg/dL | CARBON DIOXIDE [1]: 23 mmol/L | CHLORIDE [1]: 103.67 MEQ/L | CHOLESTEROL [1]: 65.67 mg/dL | CREATINE PHOSPHOKINASE [1]: 317.67 u/L | CREATININE [1]: 0.18 mg/dL | GLUCOSE [1]: 158 mg/dL | LACTATE DEHYDROGENASE [1]: 370.33 u/L | LIPASE [1]: 9 u/L | PHOSPHORUS [1]: 12.77 mg/dL | POTASSIUM [1]: 6.95 MEQ/L | SODIUM [1]: 145.43 MEQ/L | TOTAL BILIRUBIN [1]: 0.2 mg/dL | TOTAL PROTEIN [1]: 5.77 G/DL | URIC ACID [1]: 1.67 mg/dL | ABSOLUTE BASOPHIL [2]: 0 CELLS/uL | ABSOLUTE EOSINOPHIL [2]: 128.67 CELLS/uL | ABSOLUTE LYMPHOCYTE [2]: 16146.33 CELLS/uL | ABSOLUTE MONOCYTE [2]: 429 CELLS/uL | ABSOLUTE SEGMENTED NEUTROPHIL [2]: 1529.33 CELLS/uL | BASOPHIL [2]: 0% | EOSINOPHIL [2]: 0.67% | ERYTHROCYTE COUNT [2]: 5.35 x10E6/uL | HEMATOCRIT [2]: 33.4% | HEMOGLOBIN [2]: 13.33 G/DL | LEUKOCYTE COUNT [2]: 18.23 x10E3/uL | LYMPHOCYTE [2]: 88.67% | MEAN CORPUSCULAR HEMOGLOBIN [2]: 24.97 pg | MEAN CORPUSCULAR HEMOGLOBIN CONCENTRATION [2]: 39.9 G/DL | MEAN CORPUSCULAR VOLUME [2]: 62.5 fL | MONOCYTE [2]: 2.33% | NEUTROPHIL [2]: 8.33% | NUCLEATED RED BLOOD CELLS [2]: 0 /100WBC | PLATELET COUNT [2]: 1294.67 x10E3/uL | ALANINE AMINOTRANSFERASE [2]: 51.33 u/L | ALBUMIN [2]: 4.27 G/DL | ALKALINE PHOSPHATASE [2]: 334 u/L | ASPARTATE AMINOTRANSFERASE [2]: 80.67 u/L | BLOOD UREA NITROGEN [2]: 15.67 mg/dL | CARBON DIOXIDE [2]: 24.67 mmol/L | CHLORIDE [2]: 103.67 MEQ/L | CHOLESTEROL [2]: 75.33 mg/dL | CREATINE PHOSPHOKINASE [2]: 235.67 u/L | CREATININE [2]: 0.15 mg/dL | GLUCOSE [2]: 144.33 mg/dL | LACTATE DEHYDROGENASE [2]: 206.67 u/L | LIPASE [2]: 8 u/L | PHOSPHORUS [2]: 12.53 mg/dL | POTASSIUM [2]: 6.56 MEQ/L | SODIUM [2]: 145.97 MEQ/L | TOTAL BILIRUBIN [2]: 0.2 mg/dL | TOTAL PROTEIN [2]: 5.87 G/DL | URIC ACID [2]: 1.43 mg/dL | ABSOLUTE BASOPHIL [3]: 0 CELLS/uL | ABSOLUTE EOSINOPHIL [3]: 0 CELLS/uL | ABSOLUTE LYMPHOCYTE [3]: 11402.67 CELLS/uL | ABSOLUTE MONOCYTE [3]: 42 CELLS/uL | ABSOLUTE SEGMENTED NEUTROPHIL [3]: 922 CELLS/uL | BASOPHIL [3]: 0% | EOSINOPHIL [3]: 0% | ERYTHROCYTE COUNT [3]: 5.83 x10E6/uL | HEMATOCRIT [3]: 36.2% | HEMOGLOBIN [3]: 14.53 G/DL | LEUKOCYTE COUNT [3]: 12.37 x10E3/uL | LYMPHOCYTE [3]: 92.33% | MEAN CORPUSCULAR HEMOGLOBIN [3]: 24.93 pg | MEAN CORPUSCULAR HEMOGLOBIN CONCENTRATION [3]: 40.13 G/DL | MEAN CORPUSCULAR VOLUME [3]: 62.07 fL | MONOCYTE [3]: 0.33% | NEUTROPHIL [3]: 7.33% | NUCLEATED RED BLOOD CELLS [3]: 0 /100WBC | PLATELET COUNT [3]: 1700.33 x10E3/uL | ALANINE AMINOTRANSFERASE [3]: 65.67 u/L | ALBUMIN [3]: 4.33 G/DL | ALKALINE PHOSPHATASE [3]: 494.33 u/L | ASPARTATE AMINOTRANSFERASE [3]: 82.67 u/L | BLOOD UREA NITROGEN [3]: 12 mg/dL | CARBON DIOXIDE [3]: 21.33 mmol/L | CHLORIDE [3]: 102.5 MEQ/L | CHOLESTEROL [3]: 83.67 mg/dL | CREATINE PHOSPHOKINASE [3]: 249.33 u/L | CREATININE [3]: 0.17 mg/dL | GLUCOSE [3]: 162.67 mg/dL | LACTATE DEHYDROGENASE [3]: 125.67 u/L | LIPASE [3]: 13 u/L | PHOSPHORUS [3]: 12.63 mg/dL | POTASSIUM [3]: 5.48 MEQ/L | SODIUM [3]: 143.2 MEQ/L | TOTAL BILIRUBIN [3]: 0.17 mg/dL | TOTAL PROTEIN [3]: 5.8 G/DL | URIC ACID [3]: 1.93 mg/dL | ABSOLUTE BASOPHIL [4]: 0 CELLS/uL | ABSOLUTE EOSINOPHIL [4]: 0 CELLS/uL | ABSOLUTE LYMPHOCYTE [4]: 22503 CELLS/uL | ABSOLUTE MONOCYTE [4]: 323.33 CELLS/uL | ABSOLUTE SEGMENTED NEUTROPHIL [4]: 1973.67 CELLS/uL | BASOPHIL [4]: 0% | EOSINOPHIL [4]: 0% | ERYTHROCYTE COUNT [4]: 6.56 x10E6/uL | HEMATOCRIT [4]: 39.57% | HEMOGLOBIN [4]: 16.23 G/DL | LEUKOCYTE COUNT [4]: 24.8 x10E3/uL | LYMPHOCYTE [4]: 90% | MEAN CORPUSCULAR HEMOGLOBIN [4]: 24.77 pg | MEAN CORPUSCULAR HEMOGLOBIN CONCENTRATION [4]: 41.07 G/DL | MEAN CORPUSCULAR VOLUME [4]: 60.37 fL | MONOCYTE [4]: 1.33% | NEUTROPHIL [4]: 8.67% | NUCLEATED RED BLOOD CELLS [4]: 0 /100WBC | PLATELET COUNT [4]: 1311.67 x10E3/uL | ALANINE AMINOTRANSFERASE [4]: 66.67 u/L | ALBUMIN [4]: 4.5 G/DL | ALKALINE PHOSPHATASE [4]: 440.33 u/L | ASPARTATE AMINOTRANSFERASE [4]: 86 u/L | BLOOD UREA NITROGEN [4]: 19.67 mg/dL | CARBON DIOXIDE [4]: 25 mmol/L | CHLORIDE [4]: 102 MEQ/L | CHOLESTEROL [4]: 90.67 mg/dL | CREATINE PHOSPHOKINASE [4]: 343.67 u/L | CREATININE [4]: 0.2 mg/dL | GLUCOSE [4]: 132 mg/dL | LACTATE DEHYDROGENASE [4]: 171.33 u/L | LIPASE [4]: 9.33 u/L | PHOSPHORUS [4]: 11.03 mg/dL | POTASSIUM [4]: 6.65 MEQ/L | SODIUM [4]: 144.3 MEQ/L | TOTAL BILIRUBIN [4]: 0.17 mg/dL | TOTAL PROTEIN [4]: 6.17 G/DL | URIC ACID [4]: 1.33 mg/dL
